Results as given in US11331299B2, “Medicinal use of serrulatane diterpenes” (The University of Sydney, priority 2016, dated 2022).
“And” between values parts separate entries of the source, which are not always exact repeats. Equal values may be shown once. Read-outs that look alike come from different tables or passages of the source.

What was measured:
[1] = target: sirtuin 1 (h) (activator effect) (Homo sapiens, UniProt Q96EB6); assay type: biochemical; conditions: 10 μM
HMEC = assay: OncoPanel normal cell proliferation assay (3-day); assay type: cell-based; conditions: Homo sapiens, 72 h, HMEC, mammary epithelial, 3-day incubation
[2] = test system: primary human keratinocytes; assay: Keratinocyte cell viability, CCL2 assay (assay number 1243); assay type: cell-based; conditions: Homo sapiens, Keratinocyte; read-out: Inhibition of cell viability, Rel EC50
[3] = as above; assay type: cell-based, human; conditions: human; read-out: Inhibition of cell viability, Max Effect
[4] = assay type: in vivo, female NOD/SCID mice; conditions: for Body Weight: single animals No. 1-3
Experimental: Two studies were conducted by Eurofins Panlabs Taiwan, Ltd. The purpose of Study 1 was to assess the possible adverse effects of Compound 1 alone or in combination with […] in Maximum Tolerated Dose (MTD) assay. The purpose of Study 2 is a follow-up study performed at escalating doses.
Compound 1 was dissolved in 10% Tween 20/90% PBS or 20% Tween 20/80% PBS for IP injections. Compound 1 was administrated alone or in combination with […] at a dosing volume of 10 or 20 mL/kg for each substance.
For mortality, test substance (Compound 1; 100 mg/kg) alone or in combination with […] (8.75, 17.5, or 35 mg/kg; given on the same day) was administered to mice by IP injection to evaluate the possible adverse effects in MTD assay. […]. […]
A follow-up MTD study was performed to evaluate for the adverse effects of the test substance (Compound 1) at escalating doses alone or in combination with […] (17.5 mg/kg) via IP in a group of 3 female NOD/SCID mice at 6-7 weeks of age.
For mortality, treatment with Compound 1 at escalating doses (200 mg/kg) alone and in combination with […] (17.5 mg/kg; given on the same day) were administered by IP injection to a group of 3 female NOD/SCID mice at 6-7 weeks of age. The mortality was monitored at 30 min and again at 3, 24, 48 and 72 hours after compound administrations.
For body weight, test substance (Compound 1) at escalating doses (200 mg/kg) alone or in combination with […] (17.5 mg/kg; given on the same day) were administered by IP injection to a group of 3 female NOD/SCID mice at 6-7 weeks of age. The body weight of each animal was measured and recorded daily for 3 days.
For behavioral, symptomatic i.e. neurological and autonomic signs, test substance (Compound 1; 200 mg/kg) alone or in combination with […] (17.5 mg/kg; given on the same day) were administered by IP injection to a group of 3 female NOD/SCID mice at 6-7 weeks of age. The animals were then observed for presences of acute toxic symptoms and autonomic effects for 30 min after the first dose.

[5] = test system: IL-2 secretion from human CD4-positive T-cells stimulated with antiCD2/antiCD3/antiCD28-coated beads; assay: T-cell IL-2 assay; assay type: cell-based
COX1 (h) = COX1 (h) (Homo sapiens, UniProt P23219); assay: Bioprint enzyme assay; assay type: biochemical
Sequence of COX1 (h) (P23219 24-599): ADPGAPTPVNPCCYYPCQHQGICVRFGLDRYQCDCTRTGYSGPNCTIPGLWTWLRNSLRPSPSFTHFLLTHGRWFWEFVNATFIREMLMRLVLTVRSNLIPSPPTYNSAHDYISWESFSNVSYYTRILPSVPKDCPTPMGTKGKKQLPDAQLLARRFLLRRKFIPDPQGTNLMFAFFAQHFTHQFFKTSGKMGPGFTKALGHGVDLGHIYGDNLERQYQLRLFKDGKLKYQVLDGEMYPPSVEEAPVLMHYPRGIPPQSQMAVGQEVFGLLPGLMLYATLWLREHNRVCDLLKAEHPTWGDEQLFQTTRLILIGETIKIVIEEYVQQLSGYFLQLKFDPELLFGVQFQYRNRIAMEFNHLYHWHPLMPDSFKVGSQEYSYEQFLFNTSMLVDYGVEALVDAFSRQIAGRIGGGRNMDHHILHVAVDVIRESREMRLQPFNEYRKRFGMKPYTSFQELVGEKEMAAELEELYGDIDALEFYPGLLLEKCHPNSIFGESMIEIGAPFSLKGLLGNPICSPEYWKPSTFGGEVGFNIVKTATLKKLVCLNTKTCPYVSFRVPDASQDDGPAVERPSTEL

Deacetylase, Histone 3 = Deacetylase, Histone 3 (Homo sapiens, UniProt O15379); assay: Deacetylase, Histone 3 (PanLab); assay type: biochemical; conditions: assay year 2014, read-out: % Control Response
Sequence of Deacetylase, Histone 3 (O15379 whole entry): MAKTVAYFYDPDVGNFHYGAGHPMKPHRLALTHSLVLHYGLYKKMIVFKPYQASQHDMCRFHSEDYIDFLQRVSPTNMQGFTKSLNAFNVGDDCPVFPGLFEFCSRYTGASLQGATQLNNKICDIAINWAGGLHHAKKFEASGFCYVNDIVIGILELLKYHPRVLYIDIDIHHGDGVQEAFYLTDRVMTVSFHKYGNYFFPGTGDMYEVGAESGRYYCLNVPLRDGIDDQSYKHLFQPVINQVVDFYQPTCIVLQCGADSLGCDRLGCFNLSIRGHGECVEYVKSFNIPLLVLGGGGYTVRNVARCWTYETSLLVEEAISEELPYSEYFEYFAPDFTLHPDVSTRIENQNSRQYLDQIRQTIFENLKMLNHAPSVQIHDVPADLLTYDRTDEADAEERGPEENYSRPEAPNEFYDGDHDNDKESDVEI
Sequence of Deacetylase, Histone 3 (Q9Y618 395-489 partner limits assumed): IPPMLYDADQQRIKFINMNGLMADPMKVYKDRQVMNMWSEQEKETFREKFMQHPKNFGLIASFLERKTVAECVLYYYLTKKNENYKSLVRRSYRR

[6] = target: cholecystokinin CCK1 (CCKA) (h) (Homo sapiens, UniProt P32238); assay: Bioprint radioligand binding assay
Sequence of cholecystokinin CCK1 (CCKA) (h) (P32238 whole entry): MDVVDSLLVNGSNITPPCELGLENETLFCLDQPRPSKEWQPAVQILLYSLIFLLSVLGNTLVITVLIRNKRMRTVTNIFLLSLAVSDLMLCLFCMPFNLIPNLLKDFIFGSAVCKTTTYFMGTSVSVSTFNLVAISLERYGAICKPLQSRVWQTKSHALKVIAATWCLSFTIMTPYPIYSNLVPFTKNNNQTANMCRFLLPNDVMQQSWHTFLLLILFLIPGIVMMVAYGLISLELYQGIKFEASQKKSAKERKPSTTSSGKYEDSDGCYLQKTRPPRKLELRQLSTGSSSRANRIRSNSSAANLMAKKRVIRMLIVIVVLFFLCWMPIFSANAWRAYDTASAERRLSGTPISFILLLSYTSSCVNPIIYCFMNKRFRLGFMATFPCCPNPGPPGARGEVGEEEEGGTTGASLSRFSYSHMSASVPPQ

[7] = target: norepinephrine transporter (h) (Homo sapiens, UniProt P23975); assay: biochemical; assay type: binding
Sequence of norepinephrine transporter (h) (P23975 whole entry): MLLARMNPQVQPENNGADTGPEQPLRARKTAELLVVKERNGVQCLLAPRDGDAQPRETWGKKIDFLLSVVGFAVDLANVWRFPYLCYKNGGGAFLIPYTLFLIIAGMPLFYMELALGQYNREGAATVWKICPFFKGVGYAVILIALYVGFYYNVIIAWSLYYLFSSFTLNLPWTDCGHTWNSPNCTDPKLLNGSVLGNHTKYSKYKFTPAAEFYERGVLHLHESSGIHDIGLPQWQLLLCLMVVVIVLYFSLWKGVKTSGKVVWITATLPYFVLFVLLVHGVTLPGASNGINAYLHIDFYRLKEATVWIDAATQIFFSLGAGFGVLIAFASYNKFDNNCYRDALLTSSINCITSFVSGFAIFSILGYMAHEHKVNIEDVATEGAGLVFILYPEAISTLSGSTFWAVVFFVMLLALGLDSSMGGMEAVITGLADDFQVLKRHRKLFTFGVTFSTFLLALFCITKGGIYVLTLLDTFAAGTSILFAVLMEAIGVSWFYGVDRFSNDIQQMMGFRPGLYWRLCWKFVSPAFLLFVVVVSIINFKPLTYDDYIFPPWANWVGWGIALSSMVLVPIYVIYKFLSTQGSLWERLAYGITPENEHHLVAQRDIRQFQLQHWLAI

[8] = test system: IL-8 release from IL-17A and TNFα-induced primary human keratinocytes; assay: Keratinocyte IL-8 release (assay number 1250); assay type: cell-based
CCD 841 CoN = assay: OncoPanel normal cell proliferation assay (3-day); assay type: cell-based; conditions: Homo sapiens, 72 h, colon epithelial, 3-day incubation
dopamine D1 (h) = dopamine D1 (h) (Homo sapiens, UniProt P21728); assay: biochemical; assay type: binding
Sequence of dopamine D1 (h) (P21728 whole entry): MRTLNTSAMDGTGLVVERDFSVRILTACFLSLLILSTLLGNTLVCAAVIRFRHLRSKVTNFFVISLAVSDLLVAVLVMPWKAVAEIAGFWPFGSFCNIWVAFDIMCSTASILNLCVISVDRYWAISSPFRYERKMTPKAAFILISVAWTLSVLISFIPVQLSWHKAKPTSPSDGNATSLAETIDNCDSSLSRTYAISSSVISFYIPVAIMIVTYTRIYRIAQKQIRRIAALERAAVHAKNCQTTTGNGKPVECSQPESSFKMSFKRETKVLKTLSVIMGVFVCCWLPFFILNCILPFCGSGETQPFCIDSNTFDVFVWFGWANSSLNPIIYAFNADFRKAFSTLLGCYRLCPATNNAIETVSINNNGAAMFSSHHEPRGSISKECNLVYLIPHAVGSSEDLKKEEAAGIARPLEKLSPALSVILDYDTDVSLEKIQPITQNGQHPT

hSMYD2 = hSMYD2 (Homo sapiens, UniProt Q9NRG4); conditions: read-out: Reference: (IC50 not given); cited from earlier work
Sequence of hSMYD2 (Q9NRG4 whole entry): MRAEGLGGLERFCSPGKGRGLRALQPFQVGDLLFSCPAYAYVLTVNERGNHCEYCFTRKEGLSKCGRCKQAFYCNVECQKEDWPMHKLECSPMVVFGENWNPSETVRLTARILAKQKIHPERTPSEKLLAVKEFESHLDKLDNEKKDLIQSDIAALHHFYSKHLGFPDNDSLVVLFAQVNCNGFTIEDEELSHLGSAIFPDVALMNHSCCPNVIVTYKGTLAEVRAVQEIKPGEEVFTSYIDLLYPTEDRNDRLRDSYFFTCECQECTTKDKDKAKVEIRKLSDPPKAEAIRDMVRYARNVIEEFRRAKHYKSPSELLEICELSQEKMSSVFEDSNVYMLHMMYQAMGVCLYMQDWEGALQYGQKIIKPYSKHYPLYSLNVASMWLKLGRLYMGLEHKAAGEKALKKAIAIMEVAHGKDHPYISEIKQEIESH

MLL3(h) complex = MLL3(h) complex (Homo sapiens, UniProt Q8NEZ4); conditions: read-out: Reference: (IC50 not given); cited from earlier work
hDNMT3a = hDNMT3a (Homo sapiens, UniProt Q9Y6K1); conditions: read-out: Reference: IC50; cited from earlier work
Sequence of hDNMT3a (Q9Y6K1 whole entry, looked up): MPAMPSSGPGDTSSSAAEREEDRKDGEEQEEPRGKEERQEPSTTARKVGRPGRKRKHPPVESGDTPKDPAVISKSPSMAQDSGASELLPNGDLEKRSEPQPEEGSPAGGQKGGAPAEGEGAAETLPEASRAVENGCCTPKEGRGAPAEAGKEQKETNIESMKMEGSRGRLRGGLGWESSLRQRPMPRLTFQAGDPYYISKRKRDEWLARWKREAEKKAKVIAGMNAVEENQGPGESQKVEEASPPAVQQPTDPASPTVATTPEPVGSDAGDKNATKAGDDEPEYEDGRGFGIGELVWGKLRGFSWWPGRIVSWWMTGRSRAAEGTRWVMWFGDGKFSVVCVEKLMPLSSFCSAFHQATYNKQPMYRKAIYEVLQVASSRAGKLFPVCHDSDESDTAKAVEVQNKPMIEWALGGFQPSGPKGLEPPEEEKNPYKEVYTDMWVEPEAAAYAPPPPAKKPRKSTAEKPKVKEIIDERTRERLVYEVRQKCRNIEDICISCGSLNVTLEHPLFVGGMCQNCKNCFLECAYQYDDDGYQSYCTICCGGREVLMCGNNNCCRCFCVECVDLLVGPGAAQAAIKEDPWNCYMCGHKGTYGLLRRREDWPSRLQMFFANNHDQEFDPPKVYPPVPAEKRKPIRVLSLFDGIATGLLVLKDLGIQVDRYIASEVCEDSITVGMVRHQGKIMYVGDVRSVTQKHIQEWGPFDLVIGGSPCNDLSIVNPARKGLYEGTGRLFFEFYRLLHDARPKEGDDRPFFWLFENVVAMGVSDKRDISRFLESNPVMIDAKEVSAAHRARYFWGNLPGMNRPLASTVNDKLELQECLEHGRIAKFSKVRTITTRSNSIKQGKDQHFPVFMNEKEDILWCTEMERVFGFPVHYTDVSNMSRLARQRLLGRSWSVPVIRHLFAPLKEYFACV

[9] = 200 mg/kg IP, individual mice No. 1-3, 30 min after first dose, Study 2 Round 1
[10] = read-out: % inhibition of control specific binding
Throughout, for Autonomic signs: Death: key: −: no effects; ±: Slight to moderate effects; +: Severe effects; ↓: Low; D: Deep.
Throughout, for Autonomic signs: Dec. Palpebral Size: key: −: no effects; ±: Slight to moderate effects; +: Severe effects; ↓: Low; D: Deep.
Throughout, for Autonomic signs: Diarrhea: key: −: no effects; ±: Slight to moderate effects; +: Severe effects; ↓: Low; D: Deep.
Throughout, for Autonomic signs: Inc. Palpebral Size: key: −: no effects; ±: Slight to moderate effects; +: Severe effects; ↓: Low; D: Deep.

Sequence of sirtuin 1 (h) (activator effect) (Q96EB6 whole entry): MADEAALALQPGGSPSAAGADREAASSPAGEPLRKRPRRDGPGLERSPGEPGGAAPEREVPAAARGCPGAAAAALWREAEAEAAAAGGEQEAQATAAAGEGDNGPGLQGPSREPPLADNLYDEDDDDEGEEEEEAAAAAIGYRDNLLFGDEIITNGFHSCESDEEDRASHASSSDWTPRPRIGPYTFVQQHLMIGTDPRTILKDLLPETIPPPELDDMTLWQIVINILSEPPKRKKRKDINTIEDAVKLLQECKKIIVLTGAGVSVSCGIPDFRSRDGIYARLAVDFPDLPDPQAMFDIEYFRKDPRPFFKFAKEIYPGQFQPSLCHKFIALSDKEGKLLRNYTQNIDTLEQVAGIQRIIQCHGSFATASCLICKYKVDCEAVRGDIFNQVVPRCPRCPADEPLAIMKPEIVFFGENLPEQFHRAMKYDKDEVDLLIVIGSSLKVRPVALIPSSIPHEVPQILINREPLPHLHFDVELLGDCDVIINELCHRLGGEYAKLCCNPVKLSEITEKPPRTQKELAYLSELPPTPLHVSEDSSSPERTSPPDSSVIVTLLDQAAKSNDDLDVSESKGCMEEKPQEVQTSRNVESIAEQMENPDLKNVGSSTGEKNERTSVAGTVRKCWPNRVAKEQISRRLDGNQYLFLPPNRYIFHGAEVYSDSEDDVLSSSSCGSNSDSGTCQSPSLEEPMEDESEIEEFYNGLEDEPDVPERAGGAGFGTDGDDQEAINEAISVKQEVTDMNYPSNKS

## CC(C)=CCC[C@H](CO)[C@@H]1CC[C@@H](C)c2c1cc(C)c(O)c2O [Compound 1, 7,8,18-trihydroxyserrulat-14-ene]
[1]
  % Stimulation Relative to Control: −5%
HMEC; read-out: Cell Count EC50
  EC50: 30 µM
HMEC; read-out: Cell Count GI50
  GI50: 6.39 µM
HMEC; read-out: Cell Count IC50
  IC50: 30 µM
[2]
  EC50: 708 nM
[3]
  cytotoxicity: 103%
[4]; [9]
  Autonomic signs: Body Temperature: ↓+
  Autonomic signs: Death: −
  Autonomic signs: Dec. Palpebral Size: −
  Autonomic signs: Diarrhea: −
  Autonomic signs: Inc. Palpebral Size: −
  Autonomic signs: Lacrimation: −
  Autonomic signs: Others: −
  Autonomic signs: Piloerection: −
  Autonomic signs: Salivation F.V.: −
  Autonomic signs: Skin Color: −
[4]; Study 1, Compound 1 100 mg/kg IP alone
  adverse effects: did not elicit significant adverse effects
[4]; Study 1, Compound 1 100 mg/kg IP alone, 72-hour observation period
  survival: All test animals survived
[4]; Study 1, IP, 100 mg/kg, 30 min
  Response (death/test): 0/3
[4]; Study 1, IP, 100 mg/kg, 3 hrs
  Response (death/test): 0/3
[4]; Study 1, IP, 100 mg/kg, Day 1
  Response (death/test): 0/3
[4]; Study 1, IP, 100 mg/kg, Day 2
  Response (death/test): 0/3
[4]; Study 1, IP, 100 mg/kg, Day 3
  Response (death/test): 0/3
[4]; Study 2, 200 mg/kg IP, 30 min after dose
  autonomic sign: Hypothermia
[4]; Study 2, IP, 200 mg/kg, 30 min
  Response (death/test): 0/3
[4]; Study 2, IP, 200 mg/kg, 3 hrs
  Response (death/test): 0/3
[4]; Study 2, IP, 200 mg/kg, Day 0, 200 mg/kg
  Body Weight: 22 g and 21 g (2×)
[4]; Study 2, IP, 200 mg/kg, Day 1
  Response (death/test): 1/3
  Body Weight: 21 g
[4]; Study 2, IP, 200 mg/kg, Day 2
  Response (death/test): 3/3
[4]; Study 2, IP, 200 mg/kg, Day 3
  Response (death/test): 3/3
[4]; Study 2 Round 1, signs table, IP, 200 mg/kg, animals No. 1-3
  B.W.: 22 g and 21 g
[5]; read-out: Inhibition of IL-2 release, Max Effect
  Emax: 98%
[5]; read-out: Inhibition of IL-2 release, Rel EC50
  EC50: 327 nM
COX1 (h); COX1(h), read-out: % Inhibition of Control Values
  inhibition at 10 µM: 81%
COX1 (h); read-out: % inhibition of control enzyme activity
  inhibition at 10 µM: 81%
Deacetylase, Histone 3
  remaining activity at 10 µM: -5%
[6]; CHOLECYSTOKININ CCK1 (CCKA) (h) (agonist radioligand), read-out: % Inhibition of Control Specific Binding
  inhibition at 10 µM: 81%
[6]; [10]
  inhibition at 10 µM: 81%
[7]; norepinephrine transporter (h) (antagonist radioligand), read-out: % Inhibition of Control Specific Binding
  inhibition at 10 µM: 76%
[7]; [10]
  inhibition at 10 µM: 76%
[8]; read-out: Inhibition of IL-8 release, Max Effect
  Emax: 110%
[8]; read-out: Inhibition of IL-8 release, Rel EC50
  EC50: 157 nM
CCD 841 CoN; read-out: Cell Count EC50
  EC50: 4.86 µM
CCD 841 CoN; read-out: Cell Count GI50
  GI50: 5.27 µM
CCD 841 CoN; read-out: Cell Count IC50
  IC50: 14.3 µM
Dopamine D1 (h); DOPAMINE D1 (h) (antagonist radioligand), read-out: % Inhibition of Control Specific Binding
  inhibition at 10 µM: 67%
Dopamine D1 (h); [10]
  inhibition at 10 µM: 67%

## CC(C)=CCC[C@@H]1COc2c(C)cc(O)c3c2[C@H]1CC[C@H]3C [Compound 3, 5,18-epoxy-8-hydroxyserrulat-14-ene]
[1]
  % Stimulation Relative to Control: −4%

## Nc1ncnc2c1ncn2[C@@H]1O[C@H](CSCC[C@H](N)C(=O)O)[C@@H](O)[C@H]1O [SAH]
hSMYD2
  IC50: 160 nM
MLL3(h) complex
  IC50: 970 nM
hDNMT3a
  IC50: 52 nM

## CC(C)=CCC[C@@H]1C(O)Oc2c(C)cc(O)c3c2[C@H]1CC[C@H]3C (some centres unmarked) [Compound 2, 5,18-epoxyserrulat-14-en-8,18-diol]
Deacetylase, Histone 3
  remaining activity at 10 µM: 25%
